Experimental data: patent publication US20030176314A1, “Compounds for the treatment of pain” (priority 2001, published 2003)

Biological target: T1, human α2C adrenergic receptor (Homo sapiens, UniProt P18825)
T1 construct: host or cells: LM(tk-) cells, line L-α2C
T1 sequence (P18825 1-462): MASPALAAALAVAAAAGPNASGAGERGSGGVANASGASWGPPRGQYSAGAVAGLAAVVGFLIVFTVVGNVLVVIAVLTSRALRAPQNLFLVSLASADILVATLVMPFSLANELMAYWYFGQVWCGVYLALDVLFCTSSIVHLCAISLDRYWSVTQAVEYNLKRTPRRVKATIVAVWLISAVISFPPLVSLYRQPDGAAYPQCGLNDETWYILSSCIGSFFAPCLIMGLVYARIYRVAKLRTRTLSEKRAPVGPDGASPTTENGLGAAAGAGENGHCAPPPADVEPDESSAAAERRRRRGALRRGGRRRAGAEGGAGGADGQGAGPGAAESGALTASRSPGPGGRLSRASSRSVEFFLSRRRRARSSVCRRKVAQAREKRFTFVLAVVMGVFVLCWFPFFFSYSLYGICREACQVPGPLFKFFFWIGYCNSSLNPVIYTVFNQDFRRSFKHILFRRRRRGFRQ
Assay: Binding at human α2C adrenergic receptor
Settings: Table 8; read-out: hα2C Ki
Excerpt: α2 Human Adrenergic Receptors: To determine the binding of compounds to human α2 receptors, LM(tk−) cell lines stably transfected with the genes encoding the α2A, α2B, and α2C receptors were used. The cell line expressing the α2A receptor is designated L-α2A, and was deposited on Nov. 6, 1992, under ATCC Accession No. CRL 11180. The cell line expressing the α2B receptor is designated L-NGC-α2B, and was deposited on Oct. 25, 1989, under ATCC Accession No. CRL 10275. The cell line expressing the α2C receptor is designated L-α2C, and was deposited on Nov. 6, 1992, under ATCC Accession No. CRL-11181. Cell lysates were prepared as described herin, and suspended in 25 mM glycyiglycine buffer (pH 7.6 at room temperature). Equilibrium competition binding assay were performed using […] (0.5 nM), and nonspecific binding was determined by incubation with 10 μM phentolamine. The bound radioligand was separated by filtration through GF/B filters using a cell harvester.
The binding affinity (Ki) of these compounds were tested according to the protocols described herein at the following receptors; human α1A, α1B, α1D, α2A, α2B, and α2C adrenergic receptors; human Y1, Y2, Y4, and Y5 receptors; and N-Methyl-D-aspartic acid (NMDA) receptor channels. The binding interactions of these compounds were additionally tested at the norepinephrine (NE) transporter (NE uptake) and serotonin (5-hydroxytryptamine (5HT)) transporter (5HT uptake) according to protocols described herein

- Ki: 765 nM
Structure (SMILES): Cc1cc(NC(=N)N)nc2ccc(Cl)cc12 [Compound 4005A, N-(6-chloro-4-methyl-2-quinolinyl)guanidine]
